# In patent publication US20120070377A1, “COMPOUNDS AND BIOLOGICAL MATERIALS AND USES THEREOF” (priority 2009, published 2012):
# What was measured:
# [1] = test system: SKOV3 cells; experiment: Confocal fluorescence microscopy, intracellular localisation with organelle co-stains; type: cell-based, human
# Protocol: Imaging took place at the FILM Imperial College London on a LEICA SP5 MP inverted confocal microscope, at 37° C. and under a CO2 supplemented atmosphere. The water objective (63×) was used in all the experiments. Images were processed using the Leica software, Image J and Powerpoint.
# Note: in any experiment where a photosensitiser is used on cells, the experiment is done under subdued lighting exposing the cells to as little light as possible and incubating wrapped in foil. Following addition of PS to cells, cells were no longer observed on the microscope.
# Cells were plated on a Labt-Tek® 8 Chambered #1.0 Borosilicate Coverglass System. With some cell lines, it is often useful to use an attachment factor (200 μl, 30 mins, 37° C.) to coat the wells first.
# Photosensitiser solutions in phenol red free DMEM (10% FBS, 1% P/S, 0.5% DMSO) were prepared fresh and pre-warmed to 37° C. for 15 mins. The cells were washed with media (1×200 μl) before adding the solutions (200 μl per chamber). Unless otherwise stated, the cells were grown over 20 hrs in a humidified atmosphere (37° C., 5% CO2). The cells were washed (2×200 μl) with prewarmed phenol red free DMEM
# (§1) Lysotracker® Green DND-26 was diluted according to manufacturers indications (1 mM stock) and further diluted to twice the working concentration in DMEM (10% FBS, 1% P/S). For use for single colour staining, this was diluted with DMEM (10% FBS, 1% P/S) to a final concentration of 1 μM. When it was used for two colour staining with photosensitisers, a 2 μM solution was twice diluted in photosensitiser solution to give a 1 μM final concentration.
# The cells were incubated for 15 mins at 4° C. and a further 30 mins at 37° C. before replacing with fresh medium and imaging.
# as §1, with “MitoTracker®” for “Lysotracker®”, “Green” for “Green DND-26”
# The cells were incubated for 15 mins at 4° C. and a further 1 hr at 37° C. before replacing with fresh medium and imaging.
# ER-Tracker™ Green (BODIPY® FL glibenclamide) was diluted according to manufacturer's indications (1 mM stock) and further diluted to twice the working concentration in HBSS buffer (+2% HEPES). For use for single colour staining, this was diluted with HBSS (+2% HEPES) to a final concentration of 3 μM. When it was used for two colour staining with photosensitisers, a 6 μM solution was twice diluted in photosensitiser solution to give a 3 μM final concentration.
# The cells were incubated for 15 mins at 4° C. and a further 1 hr at 37° C. before replacing with fresh buffer and imaging.
# Bodipy® FL C5-ceramide complexed to BSA was diluted according to manufacturer's indications (0.5 mM stock) and further diluted to twice the working concentration in HBSS buffer (+2 HEPES). For use for single colour staining, this was diluted with HBSS (+2% HEPES) to a final concentration of 5 μM. When it was used for two colour staining with photosensitisers, a 10 μM solution was twice diluted in photosensitiser solution to give a 5 μM final concentration. The cells were incubated for 15 mins at 4° C. and a further 30 mins at 37° C. before washing with cold HBSS/HEPES (3×100 μl) and replacing with either HBSS/HEPES or photosensitiser solution and incubating at 37° C. for a further 30 mins before replacing with fresh buffer and imaging.
# [2] = Biodistribution and blood clearance of 125I-radiolabelled photosensitisers and PICs in SKOV3 tumour mice; type: in vivo, BALB/c nude mice; conditions: mouse, in vivo, iv
# Protocol: 0.1 mg of photosensitiser was dissolved in 0.5 ml PBS. Radiolabelled Iodine (Na^125I, ICN chemicals) was added to 0.1 ml of PBS in Iodogen-coated tubes (Pierce chemicals) and allowed to activate. The activated iodine-125 was transferred to the photosensitiser and allowed to react for 5-10 minutes at room temperature. The radiolabelled photosensitiser was separated from free iodine on a mini silica gel column eluting with 100% PBS to remove the iodinating agent followed by a gradual switch from 10% MeOH/PBS to 100% MeOH with the radiolabelled photosenstiser eluting with 10% MeOH/chloroform. The radiolabelled solutions of the photosensitiser was allowed to air-dry and re-suspended in PBS containing 2% DMSO.
# (§2) Female BALB/c nude mice (aged 6-8 weeks old) were implanted with 10^7 SKOV3 tumour cells mixed in 0.1 ml of ice-cold matrigel subcutaneously and the tumours were allowed to grow for 3-6 weeks as xenografts. Mice were maintained in IVC cages (individually-vented cages) in a clean room. Samples were injected in a volume of 0.1 ml, intravenously via the lateral tail vein and the mice were maintained in low light with full food and water (irradiated). At various time points (1-24 hr), mice were culled by cardiac puncture under terminal anesthesia and blood and tissues collected. All the tissues were counted for radioactivity by gamma counting and weighed.
# The results are shown as a percentage of radioactive material injected per gram of tissue.
# The PS (PPa and PPa-PEG) were chemically coupled to C6 scFv, radiolabelled with iodogen as before, but dialysed against 3×5 L of PBS to remove the free iodine and injected into BALB/c nude mice with SKOV3 tumours as above. Tissues were dissected and counted as above.
# [3] = test system: SKOV3 tumours; experiment: PDT therapy in SKOV3 tumour mice; type: in vivo, BALB/c nude mice
# Protocol: as §2
# Tumours were set up as described above and injected (iv into the mouse tail vein) with 0.2 ml of free PPa-PEG1 (0.1 mg=33 micromolar concentration) PS on day 1 and day 4. Based on the tumour uptake (see FIG. 10), an HPD laser was used to illuminate the tumours for 20 minutes at 0.5 W after 4 hrs. The mice were anaesthetized beforehand. Laser treatment followed each drug cycle. The tumours were followed for 3 weeks and the % increase in tumour size was plotted (day 0=100%) (see FIG. 12).
# Tumours (groups of 6 mice) were set up as described above and injected (iv into the mouse tail vein) with 0.2 ml of C6-PPa-PEG PIC or free PPa-PEG1 PS (1 mg/ml PIC=33 micomolar concentration scFv or 330 micromolar PPa-PEG) on day 1 and day 4. […]
smiles,measurement,setting,value
"CCC1=C(C)c2cc3[nH]c(c(C)c3CC)c(C#CCCCC(=O)ON3C(=O)CCC3=O)c3nc(c4c5[nH]c(cc1n2)c(C)c5C(=O)C4)[C@@H](CCC(=O)OCc1cc(OCCOCCOCCOC)c(OCCOCCOCCOC)c(OCCOCCOCCOC)c1)[C@@H]3C [compound 11, Meso 5-Ethynylhexanoyl succinimido ester pyropheophorbide a-3,4,5-(triethylene glycolmonomethylether) benzyl ester]",golgi localisation (co-localisation with Bodipy ceramide),[1]; FIG. 20,significant yellow staining
same,mitochondrial localisation (co-localisation with Mito-tracker),[1]; FIG. 21,significant yellow staining
same,lysosomal localisation (co-localisation with Lyso-tracker),[1]; FIG. 22,some yellow staining
same,ER localisation (co-localisation with ER-tracker),[1]; FIG. 23,significant yellow staining
same,blood clearance,[2],faster than PPa
same,tumour regression compared to untreated (Saline) controls,"[3]; C6 PPa-PEG therapy: 0.2 ml iv day 1 and day 4, 1 mg/ml PIC or 0.5 mg/ml free PS, laser 20 minutes 0.5 W after 4 hrs, followed 6 weeks",no significant tumour regression
same,tumour regression compared to untreated (Saline) controls,"[3]; PPa-PEG only therapy: 0.2 ml iv (0.1 mg) day 1 and day 4, laser 20 minutes 0.5 W after 4 hrs, followed 3 weeks",no significant tumour regression
